Experimental data: patent US10556865B2, “Synergistic herbicidal composition containing certain pyridine or pyrimidine carboxylic acids and certain cereal and rice herbicides” (Dow AgroSciences, LLC, priority 2007, dated 2020)
Several values for one entry are separate records, joined by “and”; a condition that tells them apart may be missing. Equal entries are not always repeated.

Tests used:
Type in all cases: in vivo
[1] = tested on: Polygonum pensylvanicum L. (POLPY); assay: Postemergence herbicidal mixtures for weed control in direct seeded rice (greenhouse, visual % injury); conditions: for % Injury Ob: POLPY
[2] = tested on: lamb's-quarters (Chenopodium album L; CHEAL); assay: Postemergence herbicidal activity of mixtures in cereal crops (greenhouse, visual injury)
Outline: (§1)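 Seedlings were raised 7–36 days to the second or third true leaf, treated overhead at 187 L/ha with Compound A or B and a second cereal herbicide, singly or in combination, then sub-irrigated in the greenhouse. After 20–22 days injury was rated visually against blank-treated controls (0–100%), with Colby's equation giving expected values.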

[3] = tested on: green foxtail (Setaria viridis L; SETVI); assay: as above
Outline: as §1

[4] = tested on: Ischaemum rugosum SALISB. (ISCRU); assay: Postemergence herbicidal mixtures for weed control in direct seeded rice (greenhouse, visual % injury)
[5] = tested on: Ipomoea hederacea (L.) JACQ. (IPOHE); assay: Postemergence herbicidal mixtures for weed control in direct seeded rice (greenhouse, visual % injury after 3 weeks); conditions: for % Injury Ob: IPOHE
[6] = tested on: Cyperus esculentus L. (CYPES); assay: Postemergence herbicidal mixtures for weed control in direct seeded rice (greenhouse, visual % injury); conditions: for % Injury Ob: CYPES
[7] = tested on: Polygonum persicaria L. (POLPE); assay: as above
[8] = tested on: Leptochloa chinensis (L.) NEES (LEFCH); assay: as above; conditions: for % Injury Ob: LEFCH
[9] = tested on: Scirpus maritimus L. (SCPMA); assay: as above; conditions: SCPMA
[10] = tested on: cut-leaf geranium (Geranium dissectum L; GERDI); assay: Postemergence herbicidal activity of mixtures in cereal crops (greenhouse, visual injury)
Outline: as §1

[11] = tested on: wild buckwheat (Polygonum convolvulus L; POLCO); assay: as above
Outline: as §1

[12] = tested on: Canada thistle (Cirsium arvense L; CIRAR); assay: as above
Outline: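 Weeds grown in greenhouse (~14 h photoperiod, ~18/17 °C day/night) to second–third true leaf stage, sprayed postemergence with compound and second cereal herbicide alone or combined; solvent-blank controls. Injury scored visually after 20-22 days, 0–100% (complete kill); expected mixture activity = A+B−(A×B/100).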

COC(=O)c1nc(-c2ccc(Cl)c(OC)c2F)cc(N)c1Cl [Compound A Methyl, 4-amino-3-chloro-6-(4-chloro-2-fluoro-3-methoxyphenyl)pyridine-2-carboxylic acid methyl ester]
% Injury Ob ([1]; 4.38 g/ha alone): 10%
% Injury Ob ([1]; 8.75 g/ha alone): 50%
% Injury POLPY Ob ([1]; alone 4.38 g/ha): 50%
% Injury POLPY Ob ([1]; alone 8.75 g/ha): 60%
CHEAL Ob ([2]; 17.5 g/ha): 90%
CHEAL Ob ([2]; 35 g/ha): 90%
CHEAL Ob ([2]; 70 g/ha): 95%
SETVI Ob ([3]; 17.5 g/ha, Table 1): 70%
SETVI Ob ([3]; 35 g/ha, Table 1): 75%
SETVI Ob ([3]; 35 g/ha, Table 7): 77%
SETVI Ob ([3]; 70 g/ha, Table 1): 80%
SETVI Ob ([3]; 70 g/ha, Table 7): 82%
SETVI Ob ([3]; 140 g/ha, Table 7): 91%
% Injury ISCRU Ob ([4]; alone 8.75 g/ha): 50%
% Injury ISCRU Ob ([4]; alone 17.5 g/ha): 55%
% Injury Ob ([5]; 4.38 g/ha alone): 20%
% Injury Ob ([5]; 8.75 g/ha alone): 40%
% Injury Ob ([5]; 17.5 g/ha alone): 75%
% Injury IPOHE Ob ([5]; alone 4.38 g/ha): 10% and 0%
% Injury IPOHE Ob ([5]; alone 17.5 g/ha): 85% and 75%
% Injury 11 DAA CYPES Ob ([6]; alone 8.75 g/ha): 60%
% Injury 11 DAA CYPES Ob ([6]; alone 17.5 g/ha): 70%
% Injury 21 DAA CYPES Ob ([6]; alone 8.75 g/ha): 100%
% Injury 21 DAA CYPES Ob ([6]; alone 17.5 g/ha): 99%
% Injury Ob ([6]; 4.38 g/ha alone): 40%
% Injury Ob ([6]; 8.75 g/ha alone): 60%
% Injury CYPES Ob ([6]; alone 4.38 g/ha): 70% and 85%
% Injury POLPE Ob ([7]; alone 8.75 g/ha): 50%
% Injury POLPE Ob ([7]; alone 17.5 g/ha): 90%
% Injury Ob ([8]; 17.5 g/ha alone): 75% and 50%
% Injury Ob ([8]; 35 g/ha alone): 90%
% Injury LEFCH Ob ([8]; alone 4.38 g/ha): 30%
% Injury LEFCH Ob ([8]; alone 8.75 g/ha): 40%
% Injury Ob ([9]; 4.38 g/ha alone): 0%
% Injury Ob ([9]; 8.75 g/ha alone): 10%

COc1c(Cl)ccc(-c2cc(N)c(Cl)c(C(=O)O)n2)c1F [Compound A TEA, 4-amino-3-chloro-6-(4-chloro-2-fluoro-3-methoxyphenyl)pyridine-2-carboxylic acid]
GERDI Ob ([10]; 8.75 g/ha): 50%
GERDI Ob ([10]; 8.75 g/ha alone): 50% and 38%
GERDI Ob ([10]; 17.5 g/ha): 55%
GERDI Ob ([10]; 17.5 g/ha alone): 55% and 50%
GERDI Ob ([10]; 35 g/ha): 65%
GERDI Ob ([10]; 35 g/ha alone): 65% and 80%
GERDI Ob ([10]; 70 g/ha alone): 78% and 85%
POLCO Ob ([11]; 8.75 g/ha): 90%
POLCO Ob ([11]; 8.75 g/ha alone): 90% and 76%
POLCO Ob ([11]; 17.5 g/ha): 93%
POLCO Ob ([11]; 17.5 g/ha alone): 93% and 88%
POLCO Ob ([11]; 35 g/ha): 98%
POLCO Ob ([11]; 35 g/ha alone): 98% and 96%
POLCO Ob ([11]; 70 g/ha): 99%
POLCO Ob ([11]; 70 g/ha alone): 99%
CIRAR Ob ([12]; 35 g/ha): 50%
CIRAR Ob ([12]; 70 g/ha): 60%
CIRAR Ob ([12]; 140 g/ha): 65%
